Experimental data: PubChem BioAssay AID1963843 (Molecular Pharmacology Branch, DTP, NCI, 2024)

System: 616215-338-R-J1-PDC complex spheroid viability
Experiment: Anticancer human tumor 616215-338-R-J1-PDC patient-derived colon adenocarcinoma cell line growth inhibition [POLQ]
Conditions: for IC50: curve of first compound; for viability, T/C: stronger effect = lower value
How it was run: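 PDC + HUVEC + MSC complex spheroids; POLQ inhibitors ± partner drugs; top conc. at/near clinical Cmax, else 10 microM (SN-38 1 microM), half-log dilutions; 37 degrees C, 5% CO2.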

[1] = second compound 0.0316 µM, first compound 0.0316 µM
[2] = second compound 0.0316 µM, first compound 0.1 µM
[3] = second compound 0.0316 µM, first compound 0.316 µM
[4] = second compound 0.0316 µM, first compound 1 µM
[5] = second compound 0.0316 µM, first compound 3.16 µM
[6] = second compound 0.0316 µM, first compound 10 µM
[7] = second compound 0.1 µM, first compound 0.0316 µM
[8] = second compound 0.1 µM, first compound 0.1 µM
[9] = second compound 0.1 µM, first compound 0.316 µM
[10] = second compound 0.1 µM, first compound 1 µM
[11] = second compound 0.1 µM, first compound 3.16 µM
[12] = second compound 0.1 µM, first compound 10 µM
[13] = second compound 0.316 µM, first compound 0.0316 µM
[14] = second compound 0.316 µM, first compound 0.1 µM
[15] = second compound 0.316 µM, first compound 0.316 µM
[16] = second compound 0.316 µM, first compound 1 µM
[17] = second compound 0.316 µM, first compound 3.16 µM
[18] = second compound 0.316 µM, first compound 10 µM
[19] = second compound 1 µM, first compound 0.0316 µM
[20] = second compound 1 µM, first compound 0.1 µM
[21] = second compound 1 µM, first compound 0.316 µM
[22] = second compound 1 µM, first compound 1 µM
[23] = second compound 1 µM, first compound 3.16 µM
[24] = second compound 1 µM, first compound 10 µM
[25] = second compound 3.16 µM, first compound 0.0316 µM
[26] = second compound 3.16 µM, first compound 0.1 µM
[27] = second compound 3.16 µM, first compound 0.316 µM
[28] = second compound 3.16 µM, first compound 1 µM
[29] = second compound 3.16 µM, first compound 3.16 µM
[30] = second compound 3.16 µM, first compound 10 µM
[31] = second compound 10 µM, first compound 0.0316 µM
[32] = second compound 10 µM, first compound 0.1 µM
[33] = second compound 10 µM, first compound 0.316 µM
[34] = second compound 10 µM, first compound 1 µM
[35] = second compound 10 µM, first compound 3.16 µM
[36] = second compound 10 µM, first compound 10 µM
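Further: spheroids exposed to compounds for one week before readout.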
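Wherever viability, T/C is given: percent viability relative to DMSO vehicle wells taken as 100%.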

For COc1cc2cc(C(=O)CCC(=O)O)sc2cc1OC + COC1C(OC(N)=O)C(O)C(Oc2ccc3c(O)c(NC(=O)c4ccc(O)c(CC=C(C)C)c4)c(=O)oc3c2C)OC1(C)C, the IC50 (second compound 0.0316 µM) was over 10 µM, the IC50 (second compound 0.1 µM) was over 10 µM and the IC50 (second compound 0.316 µM) was over 10 µM. For the same compound, the IC50 (second compound 1 µM) was over 10 µM, the IC50 (second compound 3.16 µM) was over 10 µM and the IC50 (second compound 10 µM) was over 10 µM. The viability, T/C [1] was 110%, the viability, T/C [2] was 103% and the viability, T/C [3] was 102%. It also gave a viability, T/C [4] of 105%, a viability, T/C [5] of 102% and a viability, T/C [6] of 113%. The viability, T/C [7] was 95.4%, the viability, T/C [8] was 101% and the viability, T/C [9] was 109%. It also gave a viability, T/C [10] of 97.7%, a viability, T/C [11] of 103% and a viability, T/C [12] of 97.2%. It also gave a viability, T/C [13] of 115%, a viability, T/C [14] of 94.9% and a viability, T/C [15] of 107%. The viability, T/C [16] was 95.1%, the viability, T/C [17] was 101% and the viability, T/C [18] was 101%. It also gave a viability, T/C [19] of 102%, a viability, T/C [20] of 88.2% and a viability, T/C [21] of 106%. The viability, T/C [22] was 98.7%, the viability, T/C [23] was 99.7% and the viability, T/C [24] was 106%. The viability, T/C [25] was 107%, the viability, T/C [26] was 99.9% and the viability, T/C [27] was 109%. For the same compound, the viability, T/C [28] was 102%, the viability, T/C [29] was 99.6% and the viability, T/C [30] was 113%. It also gave a viability, T/C [31] of 109%, a viability, T/C [32] of 91.7% and a viability, T/C [33] of 102%. The viability, T/C [34] was 104%, the viability, T/C [35] was 97% and the viability, T/C [36] was 102%.
CC1COCCN1c1cc(-c2ccnn2C)c2ccnc(-c3ccn[nH]3)c2n1 (stereo unspecified) + COC1C(OC(N)=O)C(O)C(Oc2ccc3c(O)c(NC(=O)c4ccc(O)c(CC=C(C)C)c4)c(=O)oc3c2C)OC1(C)C gave an IC50 (second compound 0.0316 µM) of 0.862 µM, an IC50 (second compound 0.1 µM) of 0.608 µM and an IC50 (second compound 0.316 µM) of 0.619 µM. For the same compound, the IC50 (second compound 1 µM) was 0.61 µM, the IC50 (second compound 3.16 µM) was 0.804 µM and the IC50 (second compound 10 µM) was 0.635 µM. The viability, T/C [1] was 102%, the viability, T/C [2] was 90.4% and the viability, T/C [3] was 70.4%. For the same compound, the viability, T/C [4] was 48.4%, the viability, T/C [5] was 31.5% and the viability, T/C [6] was 33%. It also gave a viability, T/C [7] of 96.4%, a viability, T/C [8] of 91.1% and a viability, T/C [9] of 60.8%. For the same compound, the viability, T/C [10] was 44%, the viability, T/C [11] was 30.5% and the viability, T/C [12] was 38.7%. The viability, T/C [13] was 99.6%, the viability, T/C [14] was 86.1% and the viability, T/C [15] was 59.3%. It also gave a viability, T/C [16] of 46.1%, a viability, T/C [17] of 29.7% and a viability, T/C [18] of 40.2%. The viability, T/C [19] was 103%, the viability, T/C [20] was 84.8% and the viability, T/C [21] was 58.9%. The viability, T/C [22] was 46.1%, the viability, T/C [23] was 29% and the viability, T/C [24] was 36.1%. It also gave a viability, T/C [25] of 96.1%, a viability, T/C [26] of 86.4% and a viability, T/C [27] of 68.6%. The viability, T/C [28] was 47.6%, the viability, T/C [29] was 28.7% and the viability, T/C [30] was 30.9%. It also gave a viability, T/C [31] of 96.8%, a viability, T/C [32] of 86.9% and a viability, T/C [33] of 57.3%. The viability, T/C [34] was 47.7%, the viability, T/C [35] was 29.1% and the viability, T/C [36] was 31%.
With C#Cc1c(F)ccc2cc(O)cc(-c3ncc4c(N5CC6CCC(C5)N6)nc(OCC56CCCN5CC(F)C6)nc4c3F)c12 (stereo unspecified) + COC1C(OC(N)=O)C(O)C(Oc2ccc3c(O)c(NC(=O)c4ccc(O)c(CC=C(C)C)c4)c(=O)oc3c2C)OC1(C)C the IC50 (second compound 0.0316 µM) was over 10 µM, the IC50 (second compound 0.1 µM) was over 10 µM and the IC50 (second compound 0.316 µM) was over 10 µM. For the same compound, the IC50 (second compound 1 µM) was over 10 µM, the IC50 (second compound 3.16 µM) was over 10 µM and the IC50 (second compound 10 µM) was over 10 µM. For the same compound, the viability, T/C [1] was 108%, the viability, T/C [2] was 109% and the viability, T/C [3] was 101%. It also gave a viability, T/C [4] of 112%, a viability, T/C [5] of 113% and a viability, T/C [6] of 79.2%. It also gave a viability, T/C [7] of 103%, a viability, T/C [8] of 105% and a viability, T/C [9] of 98.2%. The viability, T/C [10] was 108%, the viability, T/C [11] was 95.8% and the viability, T/C [12] was 64.1%. It also gave a viability, T/C [13] of 110%, a viability, T/C [14] of 102% and a viability, T/C [15] of 110%. It also gave a viability, T/C [16] of 105%, a viability, T/C [17] of 103% and a viability, T/C [18] of 58.1%. For the same compound, the viability, T/C [19] was 105%, the viability, T/C [20] was 108% and the viability, T/C [21] was 109%. For the same compound, the viability, T/C [22] was 94.7%, the viability, T/C [23] was 103% and the viability, T/C [24] was 71.3%. It also gave a viability, T/C [25] of 105%, a viability, T/C [26] of 109% and a viability, T/C [27] of 103%. The viability, T/C [28] was 110%, the viability, T/C [29] was 104% and the viability, T/C [30] was 64%. It also gave a viability, T/C [31] of 94.5%, a viability, T/C [32] of 103% and a viability, T/C [33] of 109%. For the same compound, the viability, T/C [34] was 106%, the viability, T/C [35] was 100% and the viability, T/C [36] was 82.6%.
